Read-outs that look alike come from different tables or passages of the source.
Experiments:
[1] = test system: HBV viral load, AD38 cells; assay: Activity of test compounds on viral production from AD38 cells (viral load by quantitative PCR of the core sequence in supernatant); type: cell-based, Hepatitis B virus; details: 10 μM compound, 6 days at 37° C., vs DMSO control wells; for activity at 10 µM: Hepatitis B virus, 144 h, read-out: AD38 Viral Load (CpAM/DMSO %) at 10 μM
Experimental: (§1) AD38 cells were then re-suspended with 10 mL of treatment medium and counted. Wells of a collagen coated 96-well NUNC microtiter plate were seeded at 50,000/well in 180 μL of treatment medium, and 20 μL of either 10% DMSO (Control) or a 10× solution of test compound in 10% DMSO in treatment media was added for a final compound concentration 1, 3, or 10 μM (1.0% final [DMSO]) and plates were incubated for 6 days at 37° C.
Subsequently viral load production was assayed by quantitative PCR of the core sequence. Briefly, 5 μL of clarified supernatant was added to a PCR reaction mixture that contained forward primers HBV-f 5′-CTGTGCCTTGGGTGGCTTT-3′, Reverse primers HBV-r 5′-[…]-3′ and Fluorescent TaqMan™ Probes HBV-probe 5′-FAM/AGCTCCAAA/ZEN/[…]/3IABkFQ-3′ in Quanta Biosciences PerfeCTa® qPCR Toughmix®, and was subsequently on an Applied Biosystems VIIA7 in a final volume of 20 μL. The PCR mixture was incubated at 45° C. for 5 minutes, then 95° C. for 10 min, followed by 40 cycles of 10 seconds at 95° C. and 20 seconds at 60° C. Viral load was quantitated against known standards by using ViiA™ 7 Software. Viral load in the supernatant from wells with treated cells were compared against viral load in supernatant from DMSO control wells (≥3 per plate).

AD38 cells = assay: AD38 viability normalized to DMSO control; type: cell-based; details: 10 μM compound, vs DMSO control
Experimental: as §1

## CN(C)c1cc(Nc2ccc(F)cc2)nc(N2CCN(S(=O)(=O)c3ccccc3)CC2)n1 [Compound 1304]
[1]; Table 6
  activity at 10 µM: 48%
AD38 cells; Table 6
  AD38 Viability Normalized Result (CPAM/DMSO %) at 10 μM: 113%

## CN(C)c1cc(Nc2ccc(F)cc2)nc(N2CCN(S(=O)(=O)c3cccc(C(F)(F)F)c3)CC2)n1 [Compound 1305]
[1]; Table 6
  activity at 10 µM: 4%
AD38 cells; Table 6
  AD38 Viability Normalized Result (CPAM/DMSO %) at 10 μM: 6%

## Cc1ccc(S(=O)(=O)N2CCN(c3nc(Nc4ccc(F)cc4)cc(N(C)C)n3)CC2)cc1 [Compound 1306]
[1]; Table 6
  activity at 10 µM: 22%
AD38 cells; Table 6
  AD38 Viability Normalized Result (CPAM/DMSO %) at 10 μM: 103%

## O=S(=O)(c1ccc(F)cc1)N1CCN(c2nc(Oc3ccc(F)cc3)cc(-n3cnnc3)n2)CC1 [Compound 1307]
[1]; Table 6
  activity at 10 µM: 84%
AD38 cells; Table 6
  AD38 Viability Normalized Result (CPAM/DMSO %) at 10 μM: 94%

## O=S(=O)(c1ccc(C(F)(F)F)cc1)N1CCN(c2nc(Oc3ccc(F)cc3)cc(-n3cnnc3)n2)CC1 [Compound 1308]
[1]; Table 6
  activity at 10 µM: 63%
AD38 cells; Table 6
  AD38 Viability Normalized Result (CPAM/DMSO %) at 10 μM: 88%

## O=S(=O)(c1cccc(C(F)(F)F)c1)N1CCN(c2nc(Oc3ccc(F)cc3)cc(-n3cnnc3)n2)CC1 [Compound 1309]
[1]; Table 6
  activity at 10 µM: 26%
AD38 cells; Table 6
  AD38 Viability Normalized Result (CPAM/DMSO %) at 10 μM: 67%

## Cc1ccc(S(=O)(=O)N2CCN(c3nc(Oc4ccc(F)cc4)cc(-n4cnnc4)n3)CC2)cc1 [Compound 1310]
[1]; Table 6
  activity at 10 µM: 50%
AD38 cells; Table 6
  AD38 Viability Normalized Result (CPAM/DMSO %) at 10 μM: 81%

## O=S(=O)(c1ccccc1)N1CCN(c2nc(Oc3ccc(F)cc3)cc(-n3cnnc3)n2)CC1 [Compound 1311]
[1]; Table 6
  activity at 10 µM: 66%
AD38 cells; Table 6
  AD38 Viability Normalized Result (CPAM/DMSO %) at 10 μM: 86%

## O=S(=O)(c1ccc(F)cc1)N1CCN(c2nc(Nc3ccc(F)cc3)cc(-n3cnnc3)n2)CC1 [Compound 1312]
[1]; Table 6
  activity at 10 µM: 31%
AD38 cells; Table 6
  AD38 Viability Normalized Result (CPAM/DMSO %) at 10 μM: 96%

## O=S(=O)(c1cccc(C(F)(F)F)c1)N1CCN(c2nc(Nc3ccc(F)cc3)cc(-n3cnnc3)n2)CC1 [Compound 1313]
[1]; Table 6
  activity at 10 µM: 47%
AD38 cells; Table 6
  AD38 Viability Normalized Result (CPAM/DMSO %) at 10 μM: 93%

## O=S(=O)(c1ccccc1)N1CCN(c2nc(Nc3ccc(F)cc3)cc(-n3cnnc3)n2)CC1 [Compound 1314]
[1]; Table 6
  activity at 10 µM: 36%
AD38 cells; Table 6
  AD38 Viability Normalized Result (CPAM/DMSO %) at 10 μM: 94%

## O=S(=O)(c1ccc(C(F)(F)F)cc1)N1CCN(c2nc(Nc3ccc(F)cc3)cc(-n3cnnc3)n2)CC1 [Compound 1315]
[1]; Table 6
  activity at 10 µM: 89%
AD38 cells; Table 6
  AD38 Viability Normalized Result (CPAM/DMSO %) at 10 μM: 98%

## N#Cc1ccc(Nc2cc(C(F)(F)F)nc(N3CCN(S(=O)(=O)c4ccc(OC(F)(F)F)cc4)CC3)n2)cc1 [Compound 1332]
[1]; Table 9
  activity at 10 µM: 13%
AD38 cells; Table 9
  AD38 Viability Normalized Result (CPAM/DMSO %) at 10 μM: 85%

## CCOc1ccc(S(=O)(=O)N2CCN(c3nc(Nc4ccc(C#N)cc4)cc(C(F)(F)F)n3)CC2)cc1 [Compound 1333]
[1]; Table 9
  activity at 10 µM: 2%
AD38 cells; Table 9
  AD38 Viability Normalized Result (CPAM/DMSO %) at 10 μM: 85%

## CCCCOc1ccc(S(=O)(=O)N2CCN(c3nc(Nc4ccc(C#N)cc4)cc(C(F)(F)F)n3)CC2)cc1 [Compound 1334]
[1]; Table 9
  activity at 10 µM: 2%
AD38 cells; Table 9
  AD38 Viability Normalized Result (CPAM/DMSO %) at 10 μM: 102%

## CCOc1ccc(S(=O)(=O)N2CCN(c3nc(C)cc(Nc4ccc(F)cc4)n3)CC2)cc1 [Compound 1336]
[1]; Table 9
  activity at 10 µM: 59%
AD38 cells; Table 9
  AD38 Viability Normalized Result (CPAM/DMSO %) at 10 μM: 103%

## CCCCOc1ccc(S(=O)(=O)N2CCN(c3nc(C)cc(Nc4ccc(F)cc4)n3)CC2)cc1 [Compound 1337]
[1]; Table 9
  activity at 10 µM: 34%
AD38 cells; Table 9
  AD38 Viability Normalized Result (CPAM/DMSO %) at 10 μM: 93%

## Cc1ccc(S(=O)(=O)N2CCN(c3nc(C)cc(Nc4ccc(F)cc4)n3)CC2)cc1 [Compound 1339]
[1]; Table 9
  activity at 10 µM: 50%
AD38 cells; Table 9
  AD38 Viability Normalized Result (CPAM/DMSO %) at 10 μM: 93%

## O=S(=O)(c1ccc(OC(F)(F)F)cc1)N1CCN(c2nc(Nc3ccc(F)cc3)cc(C(F)(F)F)n2)CC1 [Compound 1340]
[1]; Table 9
  activity at 10 µM: 1%
AD38 cells; Table 9
  AD38 Viability Normalized Result (CPAM/DMSO %) at 10 μM: 88%

## CCOc1ccc(S(=O)(=O)N2CCN(c3nc(Nc4ccc(F)cc4)cc(C(F)(F)F)n3)CC2)cc1 [Compound 1341]
[1]; Table 9
  activity at 10 µM: 1%
AD38 cells; Table 9
  AD38 Viability Normalized Result (CPAM/DMSO %) at 10 μM: 95%

## CCCCOc1ccc(S(=O)(=O)N2CCN(c3nc(Nc4ccc(F)cc4)cc(C(F)(F)F)n3)CC2)cc1 [Compound 1342]
[1]; Table 9
  activity at 10 µM: 17%
AD38 cells; Table 9
  AD38 Viability Normalized Result (CPAM/DMSO %) at 10 μM: 107%

## O=S(=O)(c1ccccc1)N1CCN(c2nc(Nc3ccc(F)cc3)cc(C(F)(F)F)n2)CC1 [Compound 1343]
[1]; Table 9
  activity at 10 µM: 6%
AD38 cells; Table 9
  AD38 Viability Normalized Result (CPAM/DMSO %) at 10 μM: 31%

## Cc1ccc(S(=O)(=O)N2CCN(c3nc(Nc4ccc(F)cc4)cc(C(F)(F)F)n3)CC2)cc1 [Compound 1344]
[1]; Table 9
  activity at 10 µM: 2%
AD38 cells; Table 9
  AD38 Viability Normalized Result (CPAM/DMSO %) at 10 μM: 0%

## O=S(=O)(c1ccc(F)cc1)N1CCN(c2nc(Nc3ccc(F)cc3)cc(C(F)(F)F)n2)CC1 [Compound 1345]
[1]; Table 9
  activity at 10 µM: 14%
AD38 cells; Table 9
  AD38 Viability Normalized Result (CPAM/DMSO %) at 10 μM: 77%

## Cc1cc(Nc2ccc(F)cc2)nc(N2CCN(S(=O)(=O)c3ccc(F)cc3)CC2)n1 [Compound 1347]
[1]; Table 9
  activity at 10 µM: 2%
AD38 cells; Table 9
  AD38 Viability Normalized Result (CPAM/DMSO %) at 10 μM: 7%

## COc1ccc(S(=O)(=O)N2CCN(c3nc(C)cc(Nc4ccc(F)cc4)n3)CC2C)cc1 (stereo not drawn) [Compound 1348]
[1]; Table 9
  activity at 10 µM: 5%
AD38 cells; Table 9
  AD38 Viability Normalized Result (CPAM/DMSO %) at 10 μM: 102%

## COc1ccc(S(=O)(=O)N2CCN(c3nc(C)cc(Nc4ccc(C#N)cc4)n3)C(=O)C2)cc1 [Compound 1352]
[1]; Table 9
  activity at 10 µM: 89%
AD38 cells; Table 9
  AD38 Viability Normalized Result (CPAM/DMSO %) at 10 μM: 96%

## CCOc1ccc(S(=O)(=O)N2CCN(c3nc(Nc4ccc(C#N)cc4)cc(-c4nccs4)n3)CC2)cc1 [Compound 1353]
[1]; Table 9
  activity at 10 µM: 7%
AD38 cells; Table 9
  AD38 Viability Normalized Result (CPAM/DMSO %) at 10 μM: 107%

## CCCCOc1ccc(S(=O)(=O)N2CCN(c3nc(Nc4ccc(C#N)cc4)cc(-c4nccs4)n3)CC2)cc1 [Compound 1354]
[1]; Table 9
  activity at 10 µM: 24%
AD38 cells; Table 9
  AD38 Viability Normalized Result (CPAM/DMSO %) at 10 μM: 97%

## N#Cc1ccc(Nc2cc(-c3nccs3)nc(N3CCN(S(=O)(=O)c4ccccc4)CC3)n2)cc1 [Compound 1355]
[1]; Table 9
  activity at 10 µM: 5%
AD38 cells; Table 9
  AD38 Viability Normalized Result (CPAM/DMSO %) at 10 μM: 103%

## Cc1ccc(S(=O)(=O)N2CCN(c3nc(Nc4ccc(C#N)cc4)cc(-c4nccs4)n3)CC2)cc1 [Compound 1356]
[1]; Table 9
  activity at 10 µM: 6%
AD38 cells; Table 9
  AD38 Viability Normalized Result (CPAM/DMSO %) at 10 μM: 97%

## O=S(=O)(c1ccc(OC(F)(F)F)cc1)N1CCN(c2nc(Nc3ccc(F)cc3)cc(-c3nccs3)n2)CC1 [Compound 1357]
[1]; Table 9
  AD38 Viral Load (CpAM/DMSO %) at 10 μM: 67%
AD38 cells; Table 9
  AD38 Viability Normalized Result (CPAM/DMSO %) at 10 μM: 95%

## CCOc1ccc(S(=O)(=O)N2CCN(c3nc(Nc4ccc(F)cc4)cc(-c4nccs4)n3)CC2)cc1 [Compound 1358]
[1]; Table 9
  activity at 10 µM: 77%
AD38 cells; Table 9
  AD38 Viability Normalized Result (CPAM/DMSO %) at 10 μM: 99%

Reference: US10273228B2, “Hepatitis B viral assembly effectors” (Indiana University Research and Technology Corporation, priority 2015, dated 2019)
